This is an account of results in BindingDB's records for doi:10.1021/acs.jmedchem.0c00012 (University of Perugia, 2020).

For this series, the target named is T1, Nuclear receptor subfamily 1 group I member 2 (Homo sapiens, UniProt O75469).
T1 sequence (O75469 whole entry): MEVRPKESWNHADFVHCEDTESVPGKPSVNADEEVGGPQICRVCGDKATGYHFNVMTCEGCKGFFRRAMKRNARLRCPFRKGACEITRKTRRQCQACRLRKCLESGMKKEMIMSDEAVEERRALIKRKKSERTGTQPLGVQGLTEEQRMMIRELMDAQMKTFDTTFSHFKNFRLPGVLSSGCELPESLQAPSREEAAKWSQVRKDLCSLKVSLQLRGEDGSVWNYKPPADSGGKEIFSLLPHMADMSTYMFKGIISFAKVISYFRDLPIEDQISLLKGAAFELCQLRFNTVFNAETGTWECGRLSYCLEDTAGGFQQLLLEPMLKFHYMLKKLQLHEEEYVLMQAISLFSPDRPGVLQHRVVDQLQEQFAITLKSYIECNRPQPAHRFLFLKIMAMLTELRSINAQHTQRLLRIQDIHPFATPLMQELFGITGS
Description: Agonist activity at His-tagged PXR-LBD/SRC-1p (unknown origin) expressed in Escherichia coli BL21(DE3) by coactivator recruitment based Alpha-screen assay.

In the case of `Cc1c(C)c2c(c(C)c1O)CC[C@@](C)(CCC[C@H](C)CCC[C@H](C)CCCC(C)C(=O)O)O2` (stereo partly specified), the EC50 is 3.3 µM.
